Data taken from PubChem BioAssay (NCI).
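Each compound was tested at five concentrations against cells in 96-well plates for 48 hours. GI50 marks 50% less growth. Definition used: TGI = concentration required for complete inhibition of growth.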

Experiments:
Assay in all cases: NCI anticancer screen, dose series, 48 h
SK-MEL-5 melanoma = system: SK-MEL-5 melanoma
ACHN renal = system: ACHN renal
UO-31 renal = system: UO-31 renal
TK-10 renal = system: TK-10 renal
COLO 205 colon = system: COLO 205 colon
SK-OV-3 ovarian = system: SK-OV-3 ovarian
CCRF-CEM leukemia = system: CCRF-CEM leukemia
NCI-H460 lung = system: NCI-H460 lung
HOP-62 NSCLC = system: HOP-62 NSCLC
M14 melanoma = system: M14 melanoma
UACC-257 melanoma = system: UACC-257 melanoma
NCI/ADR-RES ovarian = system: NCI/ADR-RES ovarian
A498 renal = system: A498 renal
IGROV1 ovarian = system: IGROV1 ovarian
HS 578T breast = system: HS 578T breast
DU-145 prostate = system: DU-145 prostate
786-0 renal = system: 786-0 renal
MCF7 breast = system: MCF7 breast
SW-620 colon = system: SW-620 colon
OVCAR-8 ovarian = system: OVCAR-8 ovarian
SK-MEL-2 melanoma = system: SK-MEL-2 melanoma
OVCAR-3 ovarian = system: OVCAR-3 ovarian
LOX IMVI melanoma = system: LOX IMVI melanoma
MOLT-4 leukemia = system: MOLT-4 leukemia
MDA-MB-231 breast = system: MDA-MB-231 breast
OVCAR-4 ovarian = system: OVCAR-4 ovarian
SK-MEL-28 melanoma = system: SK-MEL-28 melanoma
OVCAR-5 ovarian = system: OVCAR-5 ovarian
SNB-19 CNS = system: SNB-19 CNS
HOP-92 NSCLC = system: HOP-92 NSCLC
RPMI-8226 leukemia = system: RPMI-8226 leukemia
SR leukemia = system: SR leukemia
KM12 colon = system: KM12 colon
HCC-2998 colon = system: HCC-2998 colon
MDA-MB-435 = system: MDA-MB-435
HL-60(TB) leukemia = system: HL-60(TB) leukemia
SF-268 CNS = system: SF-268 CNS
HCT-116 colon = system: HCT-116 colon
A549 NSCLC = system: A549 NSCLC
RXF 393 renal = system: RXF 393 renal
HT29 colon = system: HT29 colon
T-47D breast = system: T-47D breast
NCI-H226 lung = system: NCI-H226 lung
U251 CNS = system: U251 CNS
EKVX NSCLC = system: EKVX NSCLC
SNB-75 CNS = system: SNB-75 CNS
NCI-H23 lung = system: NCI-H23 lung
MALME-3M melanoma = system: MALME-3M melanoma
NCI-H522 lung = system: NCI-H522 lung
HCT-15 colon = system: HCT-15 colon
UACC-62 melanoma = system: UACC-62 melanoma
SF-295 CNS = system: SF-295 CNS
BT-549 breast = system: BT-549 breast
SF-539 CNS = system: SF-539 CNS
PC-3 prostate = system: PC-3 prostate
CAKI-1 renal = system: CAKI-1 renal

SMILES: Cc1nc2cc(-n3c(-c4ccc(F)cc4)nc4ccccc4c3=O)ccc2n1Cc1ccccc1
- GI50 (SK-MEL-5 melanoma): 2.67 µM
- TGI (SK-MEL-5 melanoma): 9.07 µM
- GI50 (ACHN renal): 2.05 µM
- TGI (ACHN renal): 4.63 µM
- GI50 (UO-31 renal): 2.15 µM
- TGI (UO-31 renal): 8.42 µM
- GI50 (TK-10 renal): 2.73 µM
- TGI (TK-10 renal): 7.17 µM
- GI50 (COLO 205 colon): 2.11 µM
- TGI (COLO 205 colon): 5.1 µM
- GI50 (SK-OV-3 ovarian): 3.55 µM
- TGI (SK-OV-3 ovarian): 13.8 µM
- GI50 (CCRF-CEM leukemia): 8.34 µM
- TGI (CCRF-CEM leukemia): > 100 µM
- GI50 (NCI-H460 lung): 2.01 µM
- TGI (NCI-H460 lung): 4.09 µM
- GI50 (HOP-62 NSCLC): 2.44 µM
- TGI (HOP-62 NSCLC): 6.98 µM
- GI50 (M14 melanoma): 2.13 µM
- TGI (M14 melanoma): 4.62 µM
- GI50 (UACC-257 melanoma): 2.64 µM
- TGI (UACC-257 melanoma): 6.68 µM
- GI50 (NCI/ADR-RES ovarian): 1.85 µM
- TGI (NCI/ADR-RES ovarian): 4.56 µM
- GI50 (A498 renal): 2.23 µM
- TGI (A498 renal): 11.6 µM
- GI50 (IGROV1 ovarian): 5.9 µM
- TGI (IGROV1 ovarian): 31.2 µM
- GI50 (HS 578T breast): 2.68 µM
- TGI (HS 578T breast): 8.6 µM
- GI50 (DU-145 prostate): 2.6 µM
- TGI (DU-145 prostate): 6.95 µM
- GI50 (786-0 renal): 1.86 µM
- TGI (786-0 renal): 3.62 µM
- GI50 (MCF7 breast): 2.24 µM
- TGI (MCF7 breast): 5.56 µM
- GI50 (SW-620 colon): 3.16 µM
- TGI (SW-620 colon): 19.2 µM
- GI50 (OVCAR-8 ovarian): 2.31 µM
- TGI (OVCAR-8 ovarian): 6.06 µM
- GI50 (SK-MEL-2 melanoma): 2.32 µM
- TGI (SK-MEL-2 melanoma): 8.6 µM
- GI50 (OVCAR-3 ovarian): 2.35 µM
- TGI (OVCAR-3 ovarian): 5.2 µM
- GI50 (LOX IMVI melanoma): 1.97 µM
- TGI (LOX IMVI melanoma): 4.59 µM
- GI50 (MOLT-4 leukemia): 3.52 µM
- TGI (MOLT-4 leukemia): > 100 µM
- GI50 (MDA-MB-231 breast): 1.91 µM
- TGI (MDA-MB-231 breast): 5.09 µM
- GI50 (OVCAR-4 ovarian): 2.24 µM
- TGI (OVCAR-4 ovarian): 5.26 µM
- GI50 (SK-MEL-28 melanoma): 2 µM
- TGI (SK-MEL-28 melanoma): 3.94 µM
- GI50 (OVCAR-5 ovarian): 5.48 µM
- TGI (OVCAR-5 ovarian): 24.1 µM
- GI50 (SNB-19 CNS): 4.57 µM
- TGI (SNB-19 CNS): 26.8 µM
- GI50 (HOP-92 NSCLC): 2.47 µM
- TGI (HOP-92 NSCLC): 8.25 µM
- GI50 (RPMI-8226 leukemia): 5.58 µM
- TGI (RPMI-8226 leukemia): 39.7 µM
- GI50 (SR leukemia): 2.7 µM
- TGI (SR leukemia): > 100 µM
- GI50 (KM12 colon): 3.12 µM
- TGI (KM12 colon): 15.7 µM
- GI50 (HCC-2998 colon): > 100 µM
- TGI (HCC-2998 colon): > 100 µM
- GI50 (MDA-MB-435): 1.98 µM
- TGI (MDA-MB-435): 4.21 µM
- GI50 (HL-60(TB) leukemia): 13 µM
- TGI (HL-60(TB) leukemia): > 100 µM
- GI50 (SF-268 CNS): 2.83 µM
- TGI (SF-268 CNS): 10.1 µM
- GI50 (HCT-116 colon): 1.57 µM
- TGI (HCT-116 colon): 3.39 µM
- GI50 (A549 NSCLC): 2.02 µM
- TGI (A549 NSCLC): 4.66 µM
- GI50 (RXF 393 renal): 1.89 µM
- TGI (RXF 393 renal): 4.26 µM
- GI50 (HT29 colon): 2.23 µM
- TGI (HT29 colon): 4.71 µM
- GI50 (T-47D breast): 1.7 µM
- TGI (T-47D breast): 4.22 µM
- GI50 (NCI-H226 lung): 2.02 µM
- TGI (NCI-H226 lung): 6.51 µM
- GI50 (U251 CNS): 2.19 µM
- TGI (U251 CNS): 5.18 µM
- GI50 (EKVX NSCLC): 6.28 µM
- TGI (EKVX NSCLC): 49.9 µM
- GI50 (SNB-75 CNS): 1.49 µM
- TGI (SNB-75 CNS): 3.6 µM
- GI50 (NCI-H23 lung): 4.23 µM
- TGI (NCI-H23 lung): 37.6 µM
- GI50 (MALME-3M melanoma): 2.36 µM
- TGI (MALME-3M melanoma): 5.36 µM
- GI50 (NCI-H522 lung): 1.94 µM
- TGI (NCI-H522 lung): 6.49 µM
- GI50 (HCT-15 colon): 2.94 µM
- TGI (HCT-15 colon): 11.6 µM
- GI50 (UACC-62 melanoma): 2.8 µM
- TGI (UACC-62 melanoma): 9.79 µM
- GI50 (SF-295 CNS): 2.32 µM
- TGI (SF-295 CNS): 5.73 µM
- GI50 (BT-549 breast): 1.71 µM
- TGI (BT-549 breast): 3.48 µM
- GI50 (SF-539 CNS): 1.91 µM
- TGI (SF-539 CNS): 3.79 µM
- GI50 (PC-3 prostate): 1.96 µM
- TGI (PC-3 prostate): 5.3 µM
- GI50 (CAKI-1 renal): 1.89 µM
- TGI (CAKI-1 renal): 4.51 µM
